≈ marks a conversion by molar mass, not a printed value.
Tests used:
M.tb strain H37Rv [1] = assay: MABA: inhibition of growth of M.tb H37Rv under aerobic (replicating) conditions; assay type: cell-based; details: for MIC90 / MIC: Mycobacterium tuberculosis, H37RV; for MIC: read-out: MIC90 MABA; for anti-M.tb activity (in words): M.tb H37Rv, comparison with 1
M.tb strain H37Rv [2] = assay: LORA: inhibition of growth of M.tb H37Rv under non-replicating conditions; assay type: cell-based; details: Mycobacterium tuberculosis
Experimental: The compounds were evaluated for their inhibition of growth (measured as MIC90 values in µg/mL) against M.tb (strain H37Rv) under both replicating (MABA)[16] or non-replicating (LORA)[17] conditions. […] In a search for less lipophilic analogues, we prepared and evaluated compounds where this phenyl B-ring unit was replaced with different heterocycles of varying lipophilicity (Table 1).

M.tb strain H37Rv [3] = assay: MICs determined at Tibotec (slightly different protocol); assay type: cell-based; details: Mycobacterium tuberculosis, MICs determined at Tibotec (Mechelen, Belgium), read-out: MIC90 (MABA, footnote d)
Source text: Given that good activity had been reported for furan 2 (albeit in M. smegmatis),[11] we evaluated a series of both 2- and 3-furyl analogues bearing different C-unit substituents.

in vitro = details: human, human liver microsomes
[4] = human, microsomes
CYP 3A4 = CYP 3A4 (Homo sapiens, UniProt P08684); assay: Inhibition of CYP 3A4; assay type: in vitro ADME; details: 20 min exposure
[5] = rat, in vivo

CYP 3A4, sequence (P08684 whole entry, species assumed): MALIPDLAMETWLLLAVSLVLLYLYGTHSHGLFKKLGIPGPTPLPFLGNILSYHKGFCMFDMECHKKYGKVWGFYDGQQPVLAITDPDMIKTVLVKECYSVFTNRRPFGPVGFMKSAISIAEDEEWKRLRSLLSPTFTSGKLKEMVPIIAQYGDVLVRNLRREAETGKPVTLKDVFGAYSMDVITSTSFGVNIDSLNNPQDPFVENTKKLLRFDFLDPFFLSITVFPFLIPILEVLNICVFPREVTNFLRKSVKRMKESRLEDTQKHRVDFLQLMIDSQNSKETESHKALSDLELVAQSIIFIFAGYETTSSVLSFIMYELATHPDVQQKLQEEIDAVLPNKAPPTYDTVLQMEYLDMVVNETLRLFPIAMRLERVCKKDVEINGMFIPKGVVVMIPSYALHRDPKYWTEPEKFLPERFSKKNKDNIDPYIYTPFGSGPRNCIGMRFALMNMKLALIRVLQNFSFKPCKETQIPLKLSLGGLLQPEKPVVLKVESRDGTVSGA

SMILES	MIC90 (M.tb strain H37Rv [1])	MIC (M.tb strain H37Rv [1])	MIC90 (M.tb strain H37Rv [2])	MIC90 (M.tb strain H37Rv [3])	other results
COc1nc2ccc(Br)cc2cc1[C@@H](c1cc(C)sc1C)[C@@](O)(CCN(C)C)c1cccnc1OC [Compound 8]	0.12 µg/mL (≈ 0.21 µM)	0.05 to 0.58 µg/mL (≈ 0.0876 to 1.02 µM)	0.2 µg/mL (≈ 0.351 µM)	–	–
COc1cccc([C@](O)(CCN(C)C)[C@@H](c2cc3cc(Br)ccc3nc2OC)c2cc(C)sc2C)n1 [Compound 5]	0.12 µg/mL (≈ 0.21 µM)	0.05 to 0.58 µg/mL (≈ 0.0876 to 1.02 µM)	0.15 µg/mL (≈ 0.263 µM)	–	–
COc1nc2ccc(C#N)cc2cc1C(c1ccoc1)C(O)(CCN(C)C)c1cccc(F)c1 (centres unmarked) [Compound 23]	–	–	–	1.08 µg/mL (≈ 2.35 µM)	–
COc1nc2ccc(Br)cc2cc1[C@@H](c1cc(C)c(C)s1)[C@@](O)(CCN(C)C)c1cccc(F)c1 [Compound 9]	0.06 µg/mL (≈ 0.108 µM)	0.05 to 0.58 µg/mL (≈ 0.0897 to 1.04 µM)	0.11 µg/mL (≈ 0.197 µM)	–	anti-M.tb activity (in words) (M.tb strain H37Rv [1]): comparable activity to 1; half-life (in vitro): 60 min; Clint [4]: 12 µL/min/mg/protein; IC50 (CYP 3A4): 10 µM; F(%) oral bioavailability [5]: 48%
COc1nc2ccc(Br)cc2cc1[C@@H](c1ccc(N(C)C)nc1)[C@@](O)(CCN(C)C)c1cccc(F)c1 [Compound 36]	0.08 µg/mL (≈ 0.141 µM)	–	0.15 µg/mL (≈ 0.264 µM)	–	half-life (in vitro): 18 min; Clint [4]: 38 µL/min/mg/protein; IC50 (CYP 3A4): > 10 µM; F(%) oral bioavailability [5]: 45%
COc1nc2ccc(Br)cc2cc1C(c1ccoc1)C(O)(CCN(C)C)c1cccc(F)n1 (centres unmarked) [Compound 24]	–	–	–	0.68 µg/mL (≈ 1.32 µM)	–
COc1nc2ccc(C#N)cc2cc1[C@@H](c1cc(C)c(C)s1)[C@@](O)(CCN(C)C)c1cccc(F)c1 [Compound 10]	0.05 µg/mL (≈ 0.0993 µM)	0.05 to 0.58 µg/mL (≈ 0.0993 to 1.15 µM)	0.2 µg/mL (≈ 0.397 µM)	–	anti-M.tb activity (in words) (M.tb strain H37Rv [1]): equally potent
COc1nc2ccc(C#N)cc2cc1[C@@H](c1cc(C)sc1C)[C@@](O)(CCN(C)C)c1cncc(C)c1 [Compound 7]	1.94 µg/mL (≈ 3.87 µM)	0.05 to 0.58 µg/mL (≈ 0.0999 to 1.16 µM)	1.1 µg/mL (≈ 2.2 µM)	–	anti-M.tb activity (in words) (M.tb strain H37Rv [1]): less active
COc1cccc([C@](O)(CCN(C)C)[C@@H](c2cc3cc(Br)ccc3nc2OC)c2ccnc(OC)c2OC)c1OC [Compound 50]	–	–	–	0.21 µg/mL (≈ 0.335 µM)	–
COc1nc2ccc(Br)cc2cc1[C@@H](c1ccnc(OC)c1OC)[C@@](O)(CCN(C)C)c1cccc(OC(F)F)c1 [Compound 48]	< 0.02 µg/mL	–	–	–	anti-M.tb activity (in words) (M.tb strain H37Rv [1]): retain the potency of 1; half-life (in vitro): 61 min; Clint [4]: 11 µL/min/mg/protein; IC50 (CYP 3A4): > 10 µM
COc1nc2ccc(Br)cc2cc1C(c1ccoc1)C(O)(CCN(C)C)c1cccc(OC(F)(F)F)c1 (centres unmarked) [Compound 25]	–	–	–	0.76 µg/mL (≈ 1.31 µM)	–
CCSc1ccc([C@H](c2cc3cc(Br)ccc3nc2OC)[C@@](O)(CCN(C)C)c2cccc(F)c2)cn1 [Compound 39]	0.14 µg/mL (≈ 0.239 µM)	–	0.15 µg/mL (≈ 0.257 µM)	–	half-life (in vitro): 64 min; Clint [4]: 11 µL/min/mg/protein; IC50 (CYP 3A4): 10 µM; F(%) oral bioavailability [5]: 30%
COc1cccc([C@](O)(CCN(C)C)[C@@H](c2cc3cc(Br)ccc3nc2OC)c2ccnc(OC)c2OC)c1 [Compound 47]	< 0.02 µg/mL	–	–	–	anti-M.tb activity (in words) (M.tb strain H37Rv [1]): retain the potency of 1
COc1nc2ccc(Br)cc2cc1[C@@H](c1cc(C)sc1C)[C@@](O)(CCN(C)C)c1cncc(C)c1 (racemic) [Compound 6]	0.58 µg/mL (≈ 1.05 µM)	0.05 to 0.58 µg/mL (≈ 0.0902 to 1.05 µM)	0.3 µg/mL (≈ 0.541 µM)	–	–
COc1nc2ccc(C#N)cc2cc1[C@@H](c1ccnc(OC)c1OC)[C@@](O)(CCN(C)C)c1cccc(C)c1 [Compound 46]	0.15 µg/mL (≈ 0.285 µM)	–	0.14 µg/mL (≈ 0.266 µM)	–	–
COc1ncccc1[C@H](c1cc2cc(Br)ccc2nc1OC)[C@@](O)(CCN(C)C)c1cccc(C#N)c1 [Compound 33]	0.34 µg/mL (≈ 0.606 µM)	–	0.75 µg/mL (≈ 1.34 µM)	–	–
COc1nc2ccc(Br)cc2cc1C(c1ccco1)C(O)(CCN(C)C)c1cccc(OC(F)(F)F)c1 (centres unmarked) [Compound 17]	–	–	–	0.76 µg/mL (≈ 1.31 µM)	–
COc1cc([C@H](c2cc3cc(Br)ccc3nc2OC)[C@@](O)(CCN(C)C)c2cccc(F)c2)cnc1OC [Compound 43]	0.47 µg/mL (≈ 0.804 µM)	–	0.54 µg/mL (≈ 0.924 µM)	–	half-life (in vitro): 19 min; Clint [4]: 36 µL/min/mg/protein; IC50 (CYP 3A4): > 10 µM; F(%) oral bioavailability [5]: 36%
COc1ncccc1[C@H](c1cc2cc(C#N)ccc2nc1OC)[C@@](O)(CCN(C)C)c1cccc(C)c1 [Compound 31]	0.3 µg/mL (≈ 0.604 µM)	–	0.15 µg/mL (≈ 0.302 µM)	–	–
COc1nc2ccc(Br)cc2cc1[C@@H](c1cccnc1N(C)C)[C@@](O)(CCN(C)C)c1cccc(F)c1 [Compound 35]	0.18 µg/mL (≈ 0.317 µM)	–	0.2 µg/mL (≈ 0.352 µM)	–	half-life (in vitro): 15 min; Clint [4]: 45 µL/min/mg/protein; IC50 (CYP 3A4): > 50 µM
COc1cccc([C@](O)(CCN(C)C)[C@@H](c2cc3cc(Br)ccc3nc2OC)c2cc(C)sc2C)c1OC (racemic) [Compound 4]	0.5 µg/mL (≈ 0.834 µM)	0.05 to 0.58 µg/mL (≈ 0.0834 to 0.967 µM)	0.27 µg/mL (≈ 0.45 µM)	–	–
COc1nc2ccc(Br)cc2cc1C(c1ccoc1)C(O)(CCN(C)C)c1ccccn1 (centres unmarked) [Compound 28]	–	–	–	1.8 µg/mL (≈ 3.63 µM)	–
COc1ccc(C(c2cc3cc(C#N)ccc3nc2OC)C(O)(CCN(C)C)c2cccc(F)c2)s1 (centres unmarked) [Compound 14]	–	–	–	0.7 µg/mL (≈ 1.38 µM)	–

— PMC5696560 (Bioorganic & Medicinal Chemistry Letters, 2017)
